Measured values as given in patent publication US8399417B2, “Food” (Ajinomoto Co., Inc., priority 2007, dated 2013).
Starred links: 1 amine or outer side, 2 acyl side, 3 side chain; linkers in the order of their positions; H or OH if unused. Non-standard residues stand in square brackets, D forms with d. No end group written: not given here. γGlu = O=C(O)[C@H](CCC(=O)[*:2])N[*:1]; Abu = CC[C@H](N)C(=O)O

Experiments:
Type in all cases: in vivo, human
[1] = Fat-like richness and smoothness imparted to low-fat milk, quantitative sensory evaluation test; settings: for Fat-like richness / Smoothness: n=12, control 0, strong 3, very strong 5 points
Protocol: (§1) The quantitative sensory evaluation test was performed as follows. Each of γ-Glu-Cys-Gly (glutathione), γ-Glu-Val-Gly, and γ-Glu-Abu-Gly was mixed with commercially-available low-fat milk (non-fat milk solids content: 8.6% or more, milk fat content: 1.5%) at a concentration of 0.00001 to 1 g/dl, and the intensity of imparting fat-like richness was measured.
It should be noted that each peptide was dissolved in low-fat milk, and then a sample, the pH of which was lowered, was adjusted with NaOH so that the pH might be ±0.2 with respect to the pH of the low-fat milk free of peptide.
The sensory score for fat-like richness and smoothness was defined as follows: control (free of peptide): 0 point; strong: 3 points; and very strong: 5 points. Then, the test was performed with n=12. […] As clear from Table 6, it was confirmed that the peptide imparted fat-like richness and smoothness to low-fat milk at a lower concentration than glutathione.
as §1, with “γ-Glu-Val-Gly” for “γ-Glu-Cys-Gly (glutathione), γ-Glu-Val-Gly,”, “cinacalcet” for “γ-Glu-Abu-Gly”
It should be noted that each sample was dissolved in low-fat milk, and then a sample, the pH of which was lowered, was adjusted with NaOH so that the pH might be ±0.2 with respect to the pH of the low-fat milk free of a sample.
(§2) The sensory score for fat-like richness and smoothness was defined as follows: control (free of sample): 0 point; strong: 3 points; and very strong: 5 points. Then, the test was performed with n=12.

[2] = Fat-like richness and smoothness imparted to low-calorie mayonnaise, quantitative sensory evaluation test; settings: for Fat-like richness / Smoothness: control 0, strong 3, very strong 5 points
Protocol: In the same manner as that in Example 1 except that commercially-available low-calorie mayonnaise (having a fat content reduced by 50% compared with a normal product) was used instead of low-fat milk, each peptide was measured for its fat-like richness-imparting intensity.
In the same manner as that in Example 2, each sample was measured for its intensity of imparting fat-like richness.

[3] = Fat-like richness and smoothness imparted to low-fat yogurt, quantitative sensory evaluation test; settings: Table 10
Protocol: The quantitative sensory evaluation test was performed as follows. Each of γ-Glu-Val-Gly and cinacalcet was mixed with commercially-available low-fat yogurt (non-fat milk solids content: 10.0%, milk fat content: 1.0%) at a concentration of 0.00001 to 1 g/dl, and the intensity of imparting fat-like richness was measured.
It should be noted that after each sample was dissolved in low-fat yogurt, and a sample, the pH of which was lowered, was adjusted with NaOH so that the pH might be ±0.2 with respect to the pH of the […] free of a sample.
as §2

[4] = 0.01 g/dl in low-fat milk (milk fat 1.5%), Table 6
[5] = 0.01 g/dl in low-fat milk, Table 6
[6] = 0.01 g/dl in low-calorie mayonnaise (fat reduced by 50%), Table 7
[7] = 0.01 g/dl in low-calorie mayonnaise, Table 7
[8] = 0.0001 g/dl in low-fat milk, Table 6
[9] = 0.001 g/dl in low-fat milk, Table 6
[10] = 0.001 g/dl in low-fat milk, Table 8
[11] = 0.0001 g/dl in low-calorie mayonnaise, Table 7
[12] = 0.001 g/dl in low-calorie mayonnaise, Table 7
[13] = 0.001 g/dl in low-calorie mayonnaise, Table 9

## N[C@@H](CCC(=O)N[C@@H](CS)C(=O)NCC(=O)O)C(=O)O [γ-Glu-Cys-Gly, reference compound]
[1]; [4]
  Fat-like richness: 2.5 points
[1]; [5]
  Taste profile: Growth exists in the whole
  Smoothness: 3.0 points
[2]; [6]
  Fat-like richness: 3.5 points
[2]; [7]
  Taste profile: Fat-like richness with sweet
  Smoothness: 3.0 points

## [γGlu]-Val-Gly
[1]; [8]
  Taste profile: Taste is enhanced in middle
  Fat-like richness: 2.5 points
  Smoothness: 2.3 points
[1]; [9]
  Taste profile: Taste is enhanced in middle
  Fat-like richness: 4.5 points
  Smoothness: 4.0 points
[1]; [10]
  Taste profile: Taste is enhanced in middle taste
  Fat-like richness: 4.5 points
  Smoothness: 4.0 points
[2]; [11]
  Taste profile: Taste is enhanced in middle
  Fat-like richness: 3.0 points
  Smoothness: 3.0 points
[2]; [12]
  Taste profile: Taste is enhanced in middle
  Fat-like richness: 4.8 points
  Smoothness: 4.5 points
[2]; [13]
  Taste profile: Taste is enhanced in middle
  Fat-like richness: 4.8 points
  Smoothness: 4.5 points
[3]; 0.001 g/dl in low-fat yogurt (milk fat 1.0%), n=12, control 0, strong 3, very strong 5 points
  Fat-like richness: 4.5 points
[3]; 0.001 g/dl in low-fat yogurt
  Taste profile: Taste is enhanced in middle
[3]; 0.001 g/dl in low-fat yogurt, n=12, control 0, strong 3, very strong 5 points
  Smoothness: 4.0 points

## [γGlu]-[Abu]-Gly
[1]; [9]
  Fat-like richness: 2.3 points
  Smoothness: 3.0 points
[1]; [4]
  Fat-like richness: 4.3 points
[1]; [5]
  Smoothness: 4.0 points
[2]; [12]
  Taste profile: Fat-like richness with sweet
  Fat-like richness: 3.2 points
  Smoothness: 3.0 points
[2]; [6]
  Fat-like richness: 4.7 points
[2]; [7]
  Taste profile: Fat-like richness with sweet
  Smoothness: 4.3 points
